One test deals with T1, RORγ-LBD (Homo sapiens, UniProt P51449).
T1 construct: made in house; host or cells: SF9 cells (baculovirus)
T1 sequence (P51449 269-508 limits assumed): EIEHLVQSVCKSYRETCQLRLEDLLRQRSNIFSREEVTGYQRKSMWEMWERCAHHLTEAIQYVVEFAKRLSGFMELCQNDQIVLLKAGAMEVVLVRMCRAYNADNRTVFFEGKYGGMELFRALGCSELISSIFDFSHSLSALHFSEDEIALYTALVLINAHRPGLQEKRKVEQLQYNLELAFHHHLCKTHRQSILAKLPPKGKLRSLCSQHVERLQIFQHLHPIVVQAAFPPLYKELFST
Put plainly: RORγ-Ligand Binding Domain (LBD) TR-FRET Assay.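 On TR-FRET Assay Max Response: 665/615 nm ratio relative to signal without ursolic acid or compound set at 100.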 The test is classed as biochemical. The gist of the method:
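This TR-FRET coactivator assay pairs baculovirus-expressed His-RORγ-LBD (~3 nM final) with biotin-SRC1 LXXLL peptide at 200 nM final in pH 7.0 Tris/KCl/EDTA/DTT/BSA buffer.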

For a further test, the target named is T2, Gal4-RORγ-LBD (Homo sapiens, UniProt P51449).
T2 construct: expressed in transfected cells; host or cells: HEK-293 cells (pcDNA3.1neo plasmid)
T2 sequence (P51449 269-508 limits assumed): T1 sequence (P51449 269-508 limits assumed)
Put plainly: Gal4-RORγ Luciferase Reporter Assay in HEK-293T Cells. The test is classed as cell-based. The settings on record: HEK-293 cells, luciferase reporter, with 2 μM ursolic acid. Summed up: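 Luminescence read-out (One-Glo, 10 min RT) after overnight compound exposure at 37 °C in HEK-293 cells carrying Gal4-RORγ-LBD plus a Gal4-luciferase reporter, in the presence of 2 μM ursolic acid. Max Response is the upper plateau from a 4-parameter logistic fit, normalized to untreated signal = 100.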
On the technique in general: A reporter such as luciferase makes a cellular process visible.

The results in this text go back to patent US10611740B2, “Aryl dihydro-2H-benzo[b][1,4]oxazine sulfonamide and related compounds for use as agonists of RORγ and the treatment of disease” (Lycera Corporation, priority 2015, dated 2020).

Molecules are shown by their SMILES.

Turning to `O=C(CC[C@H]1CN(S(=O)(=O)c2cccc(C(F)(F)F)c2)c2cc(-c3ccc(F)cc3F)ccc2O1)NS(=O)(=O)c1ccccc1` [Compound 43A, (S)-3-(6-(2,4-difluorophenyl)-4-((3-(trifluoromethyl)phenyl)-sulfonyl)-3,4-dihydro-2H-benzo[b][1,4]oxazin-2-yl)-N-(phenylsulfonyl)propanamide], on RORγ-LBD, the half-maximal effective concentration (EC50) (as a rule, the concentration giving half of the maximal effect) was less than 500 nM and the “TR-FRET Assay Max Response” value is reported as “**** (The symbol “****” indicates a value greater than 200)”. On Gal4-RORγ-LBD, the EC50 was 500 to 5000 nM and the “Gal4-RORγ Assay Max Response” value is on record as “*** (The symbol “***” indicates a value in the range of greater than 150 to 200)”.

For the compound `COc1cccc(-c2ccc3c(c2)N(S(=O)(=O)c2cccc(C(F)(F)F)c2)C[C@H](CCC(=O)N2CCC(C(=O)O)CC2)O3)c1` [Compound 23L, (S)-1-(3-(6-(3-methoxyphenyl)-4-((3-(trifluoromethyl)-phenyl)sulfonyl)-3,4-dihydro-2H-benzo[b][1,4]oxazin-2-yl)propanoyl)piperidine-4-carboxylic acid], at RORγ-LBD, the EC50 was less than 500 nM and the “TR-FRET Assay Max Response” value is given as “**** (The symbol “****” indicates a value greater than 200)”. In addition, at Gal4-RORγ-LBD, the EC50 is less than 500 nM and the “Gal4-RORγ Assay Max Response” value was “** (The symbol “**” indicates a value in the range of greater than 90 to 150)”.

On to `O=C(O)CC[C@H]1CN(S(=O)(=O)c2cccc(C(F)(F)F)c2)c2cc(-c3cccc(OC(F)(F)F)c3)ccc2O1` [Compound 2AP, (S)-3-(6-(3-(trifluoromethoxy)-phenyl)-4-((3-(trifluoromethyl)-phenyl)sulfonyl)-3,4-dihydro-2H-benzo[b][1,4]oxazin-2-yl)propanoic acid], for which, at RORγ-LBD, the EC50 was less than 500 nM and the “TR-FRET Assay Max Response” value is “**** (The symbol “****” indicates a value greater than 200)”. Further, at Gal4-RORγ-LBD, the EC50 was less than 500 nM and the “Gal4-RORγ Assay Max Response” value is “** (The symbol “**” indicates a value in the range of greater than 90 to 150)”.

Consider `C[C@@](O)(C(=O)NC[C@H]1CN(S(=O)(=O)c2cccc(C(F)(F)F)c2)c2cc(-c3cc(F)ccc3F)ccc2O1)C(F)(F)F` [Compound 30V, (R)-N-(((S)-6-(2,5-difluoro-phenyl)-4-((3-(trifluoromethyl)-phenyl)sulfonyl)-3,4-dihydro-2H-benzo[b][1,4]oxazin-2-yl)methyl)-3,3,3-trifluoro-2-hydroxy-2-methylpropanamide], for which, at RORγ-LBD, the EC50 was less than 500 nM and the “TR-FRET Assay Max Response” value was “**** (The symbol “****” indicates a value greater than 200)”. Besides, on Gal4-RORγ-LBD, the EC50 is less than 500 nM and the “Gal4-RORγ Assay Max Response” value is “* (The symbol “*” indicates a value in the range of 25 to 90)”.

With `Cn1cnc(-c2ccc3c(c2)N(S(=O)(=O)c2cccc(C(F)(F)F)c2)C[C@H](CCC(=O)O)O3)n1` [Compound 4M, (S)-3-(6-(1-methyl-1H-1,2,4-triazol-3-yl)-4-((3-(trifluoro-methyl)phenyl)sulfonyl)-3,4-dihydro-2H-benzo[b][1,4]-oxazin-2-yl)propanoic acid], on RORγ-LBD, the 50% effective concentration (EC50) is less than 500 nM and the “TR-FRET Assay Max Response” value is on record as “**** (The symbol “****” indicates a value greater than 200)”. Also, at Gal4-RORγ-LBD, the EC50 is greater than 10000 nM and the “Gal4-RORγ Assay Max Response” value is “* (The symbol “*” indicates a value in the range of 25 to 90)”.

Regarding `CC(C)(C[C@H]1CN(S(=O)(=O)c2cccc(C(F)(F)F)c2)c2cc(-c3cc(F)cc(F)c3)ccc2O1)C(=O)O` [Compound 32N, (S)-3-(6-(3,5-difluorophenyl)-4-((3-(trifluoromethyl)phenyl)-sulfonyl)-3,4-dihydro-2H-benzo[b][1,4]oxazin-2-yl)-2,2-dimethylpropanoic acid], at RORγ-LBD, the concentration for a half-maximal effect (EC50) was less than 500 nM and the “TR-FRET Assay Max Response” value is recorded as “*** (The symbol “***” indicates a value in the range of greater than 150 to 200)”. For the same compound, at Gal4-RORγ-LBD, the EC50 is less than 500 nM and the “Gal4-RORγ Assay Max Response” value is on record as “** (The symbol “**” indicates a value in the range of greater than 90 to 150)”.
